Legend:
DU145 cells = assay: Cell viability, MTS metabolic activity assay, DU145; format: cell-based, human; conditions: DU145, 72 hours
Protocol: (§1) CWR22Rv1 prostate cancer cells were treated with N6BAP or the control compound C5 (Ctrl) at 25 μM concentration or vehicle for 24 h. Following trypan blue exclusion, the attached viable vs. de-attached dead cells were counted. […] The bars indicate mean±SD of triplicate wells. In another assay, CWR22Rv1, LNCaP and DU145 cells were treated with N6BAP, the control compound C5 (Ctrl) or vehicle at indicated concentrations. The fraction of alive cells was determined by MTS ([…]) metabolic activity assay (CellTiter 96® AQueous Assay kit). The results are shown in FIGS. 9C, 9D and 9E, respectively.

Bcl-xL = assay: Expression of Stat5 target gene Bcl-xL in CWR22Rv1 and LNCaP cells (immunoblot); format: cell-based, human; conditions: 25 μM over time
Protocol: Exponentially growing CWR22Rv1 and LNCaP cells were treated with N6BAP or the control compound C5 (Ctrl) for 48 h at concentrations indicated in FIG. 6 and whole cell lysates were immunoblotted with anti-cyclinD1 mAb. Exponentially growing CWR22Rv1 and LNCaP cells were treated with N6BAP or control compound C5 (Ctrl) at 25 μM for the periods of time indicated in FIG. 6, and whole cell lysates were immunoblotted with anti-cyclinD1 mAb or anti-Bcl-X1 pAb. Cell pellets were solubilized in lysis buffer [10 mM Tris-HCl (pH 7.6), 5 mM EDTA, 50 mM sodium chloride, 30 mM sodium pyrophosphate, 50 mM sodium fluoride, 1 mM sodium orthovanadate, 1% Triton X-100, 1 mM phenylmethylsulfonyl fluoride, 5 μg/ml aprotinin, 1 μg/ml pepstatin A, and […]], rotated end-over-end at 4° C. for 60 min, and insoluble material was pelleted at 12,000×g for 30 min at 4° C. The protein concentrations of clarified cell lysates were determined by simplified Bradford method (Bio-Rad Laboratories, Hercules, Calif.). The following primary antibodies were used for Western blotting, at the following concentrations: anti-β-actin pAb (1:4,000; Sigma), anti-cyclin D1 mAb (1:1000, BD Biosciences) and Bcl-xL pAb (1:1000, Cell Signaling, Danvers, Mass.).

Stat5a/b [1] = assay: Electrophoresis mobility shift assay (EMSA) of Stat5a/b binding to DNA, nuclear extracts of transfected COS-7 cells; format: cell-based; conditions: 2 hours pretreatment, 10 nmol/L Prl 30 minutes
Protocol: COS-7 cells were transfected with plasmids expressing Stat5a (pStat5a) and PrlR (pPrlR) using FuGENE6. After 24 hours, the cells were starved in serum-free medium for 16 hours and then pretreated with N6BAP or the control compound C5 for 2 hours and the stimulated with 10 nmol/L Prl for 30 minutes. Nuclear extracts were prepared and a gel EMSA was performed as previously described (Ahonen et al., Endocrinology 2002, 143:228-238; Nevalainen et al., Mol Endocrinol 2002, 16:1108-1124). Double stranded Stat5a/b-binding oligonucleotide probe (upper strand sequence: 5′-[…]-3′) (Boucheron et al., J Biol Chem (1998), 273:33936-33941) were end-labeled with 50 μCi of γ-^32P-ATP (5000 ci/mMol) and incubated (1 ng per reaction) with 10 μl of nuclear extracts in the final volume of 20 μl of the binding mixture (50 mM TrisHCl, pH 7.4, 25 mM MgCl2, 500 mM KCl, 5 mM DTT, 50% glycerol) and 1 μl of 1 mg/ml Poly d[(I:C)]. For a supershift control, the samples were preincubated with anti-Stat5a or anti-Stat5b antibody (Millipore) or NRS as indicated. Polyacrylamide gels (5%) containing 5% glycerol and 0.25×Tris-borate/EDTA were pre-run in 0.25×Tris-borate/EDTA buffer at 4-10° C. for 2-4 h at 300V. The gels were run at room temperature for 2.33 hours at 200 V, dried and exposed to x-ray films (X-Omat, Eastman Kodak Co.). […]

[2] = tested on: A549 human lung cancer cells; assay: Cell viability assay, A549; format: cell-based
Protocol: as §1
(§2) The procedure of Example 9 was followed, substituting cells of the following solid tumor cell lines for the cells treated in Example 9: A549 human lung cancer cells, CAPAN human pancreatic cancer cells, T47D human breast cancer cells, […], A2058 human melanoma and COS-7 monkey fibroblast cell lines.

[3] = tested on: HCT116 human liver cancer cells; assay: Cell viability assay, HCT116; format: cell-based
Protocol: as §1, §2

Stat5a/b [4] = assay: Nuclear Stat5a/b immunostaining in CWR22Rv1 xenograft tumors; format: in vivo, nude mice; conditions: CWR22Rv1 xenograft tumors of Example 10
Protocol: Nuclear active Stat5a/b or nuclear active Stat3 were analyzed by immunostaining with an anti-Stat5a/b or anti-Stat3 antibody, respectively, and biotin-streptavidin amplified peroxidase antiperoxidase immunodetection of paraffin-embedded sections of the prostate xenograft tumors of Example 10. Anti-Stat5a/b (mAb) (55 ng/ml) (Santa Cruz Biotechnology) was used as the primary antibody and antigen-antibody complexes were detected by appropriate biotinylated goat secondary antibodies (Biogenex Laboratories) followed by streptavidin-horseradish-peroxidase complex, and 3,3′-diaminobenzidine as chromogen and Mayer hematoxylin as counterstain. Three microscopic views of each tumor (ten tumors per each treatment group) were photographed at 20× magnification. Nuclear Stat5 and Stat3 indexes were determined by counting epithelial cells with nuclear Stat5a/b immunostaining-positive cells per total number of epithelial cells per view. The counts were averaged within the tumors in a given treatment group.

[5] = tested on: CAPAN human pancreatic cancer cells; assay: Cell viability assay, CAPAN; format: cell-based
Protocol: as §1, §2

Q: Which results are given for `O=P(O)(O)OC[C@H]1O[C@@H](n2cnc3c(NCc4ccccc4)ncnc32)[C@H](O)[C@@H]1O` [N6BAP, N^6-benzyladenosine-5′-monophosphate]?
A: number of viable cells (DU145 cells): decreases the number of viable cells; expression of Bcl-xL (Bcl-xL): down-regulates expression; binding of Stat5a/b to DNA (EMSA) (Stat5a/b [1]): inhibited binding of Stat5a/b to DNA; cell viability [2]: did not affect the viability; cell viability [3]: did not affect the viability; nuclear Stat5a/b expression in xenograft tumors (Stat5a/b [4]): inhibits nuclear Stat5a/b expression; cell viability [5]: did not affect the viability

— patent US20160038526A1, “TREATMENT OF PROSTATE CANCER” (THOMAS JEFFERSON UNIVERSITY, priority 2012, published 2016)
